Eleven compounds from patent publication US20060189613A1, “Sulphonamide Compounds that Modulate Chemokine Receptor Activity (CCR4)” (priority 2003, published 2006) can be followed below.

Regarding `COc1ncncc1NS(=O)(=O)c1cccc(Cl)c1Cl` [Example 6, 2,3-Dichloro-N-[4-methoxy-5-pyrimidinyl]benzenesulphonamide], the melting point (as a rule, the temperature, or range, at which the solid turns liquid) is 204 to 211 °C.

With `COc1cnc(Cl)nc1NS(=O)(=O)c1cccc(Cl)c1Cl` [Example 7, 2,3-Dichloro-N-[2-chloro-5-methoxy-4-pyrimidinyl]benzenesulphonamide], the melting point was in the range of 244 to 245 °C.

`COc1cc(Cl)nnc1NS(=O)(=O)c1cccc(Cl)c1Cl` [Example 2, 2,3-Dichloro-N-[6-chloro-4-methoxy-3-pyridazinyl]benzenesulphonamide] had a melting point of 226 to 227 °C. Take `COc1cnc(Cl)nc1NS(=O)(=O)c1ccc(Cl)s1` [Example 11, 5-Chloro-thiophene-2-sulphonic acid, [2-chloro-5-methoxy-4-pyrimidinyl]amide]: the melting point lay within 201 to 202 °C. As for `COc1cncnc1NS(=O)(=O)c1cccc(Cl)c1Cl` [Example 8, 2,3-Dichloro-N-[5-methoxy-4-pyrimidinyl]benzenesulphonamide], the melting point fell in the range of 278 to 279 °C.

With `COc1cnc(C(F)(F)F)nc1NS(=O)(=O)c1cccc(Cl)c1Cl` [Example 10, 2,3-Dichloro-N-[5-methoxy-2-trifluoromethyl-4-pyrimidinyl]benzenesulphonamide], the melting point was 190 to 191 °C. `O=S(=O)(Nc1nnc(Cl)cc1OCc1cccnc1)c1cccc(Cl)c1Cl` [Example 3, 2,3-Dichloro-N-[6-chloro-4-(3-pyridinylmethoxy)-3-pyridazinyl]benzenesulphonamide] had a melting point of 216 to 217 °C. Take `COc1cc(Cl)nnc1NS(=O)(=O)c1ccc(Cl)s1` [Example 13, 5-Chloro-N-[6-chloro-4-methoxy-3-pyridazinyl]thiophene-2-sulphonamide]: the melting point fell in the range of 120 to 122 °C.

`COc1ncc(NS(=O)(=O)c2cccc(Cl)c2Cl)c(OC)n1` [Example 5, 2,3-Dichloro-N-[2,4-dimethoxy-5-pyrimidinyl]benzenesulphonamide] had a melting point of 124 to 126 °C. The compound `COc1ccnnc1NS(=O)(=O)c1cccc(Cl)c1Cl` [Example 1, 2,3-Dichloro-N-[4-methoxy-3-pyridazinyl]benzenesulphonamide] came in with a melting point of 210 to 211 °C. The compound `COc1cnc(C)nc1NS(=O)(=O)c1ccc(Cl)s1` [Example 12, 5-Chloro-thiophene-2-sulphonic acid, [5-methoxy-2-methyl-4-pyrimidinyl]amide] gave a melting point of 249 to 250 °C.
